According to US12013398B2, “Compositions and methods for treatment of invasive cancers” (The George Washington University, priority 2021, dated 2024):
“Also recorded” adds a separate entry of the source.

Legend:
Assay type in all cases: cell-based
[1] = target: T1, ATP1a1 (Homo sapiens, UniProt P05023); assay: Immunofluorescence imaging of plasma membrane ATP1A1 localization in overconfluent DCIS.com cells; details: OC DCIS.com cells; 20 nM lithium bicarbonate or 100 nM ouabain, 24 hours; IF images
T1 construct: endogenous in cells; host or cells: MCF10DCIS.com (DCIS.com) cells, overconfluent
Source text: FIGS. 4A-4B depict images illustrating ion channel enrichment in DCIS plasma membranes. […] Transferrin receptor (TfR) distribution was insensitive to cell crowding. IF images. […] Scale bar=10 μm.
Crowding-induced cell volume changes typically occur under isotonic conditions and are accompanied by the efflux of intracellular osmolytes through ion channels. Methods herein assessed if ion channel activities were altered when cells are crowded.

[2] = tested on: DCIS.com cells; assay: 2D hydrogel matrix-based invasion assay; details: crowded DCIS.com cells treated with TSA vs vehicle
Source text: FIGS. 6A-6G depict images illustrating 2D hydrogel-based invasion assays. […] Percent (%) invading cells was calculating by dividing this value by the total number of spots. […] Scale bar=100 μm (FIGS. 6B-6E) and 10 μm (FIGS. 6F-6G).
To compare the invasive potential of live cells between different treatment groups, exemplary methods herein established a hydrogel matrix-based invasion assay (FIG. 6A). This assay was used to quantify the invasive cell fraction as a percentage of the total, based on fluorescence imaging results (FIGS. 6B-6E). Since cell stiffness is modulated by the stiffness of the surroundings [the values for normal breast versus DCIS cells are known to be ˜0.1 versus ˜10 kPa], the hydrogel matrix could be stiffness-controlled within the range specified above, as confirmed by nanoindenter measurements.
(§1) Also assessed were two independent possibilities for crowding-mediated increased invasiveness: YAP-association and cell cycle arrest (high-density cells are subject to G1 arrest).

[3] = tested on: DCIS.com cells; assay: Cell cycle arrest in crowded DCIS.com cells; details: crowded DCIS cells treated with TSA vs vehicle
Source text: FIGS. 11A-11D depict images and graphs illustrating independent possibilities for crowding-mediated increased invasiveness. […] FIGS. 11C-11D show images of DCIS.com cell invasiveness after treatment with vehicle or TSA (FIG. 11C) and the percentage of invasive cells per treatment group (FIG. 11D).
as §1

## C[C@@H]1O[C@@H](O[C@H]2C[C@@H](O)[C@]3(CO)[C@H]4[C@H](O)C[C@]5(C)[C@@H](C6=CC(=O)OC6)CC[C@]5(O)[C@@H]4CC[C@]3(O)C2)[C@H](O)[C@H](O)[C@H]1O [ouabain]
[1]
  PM ATP1a1 localization / PM abundance of ion channels: the PM abundance of ion channels was perturbed; also recorded: perturbed PM ATP1a1 localization

## O=C([O-])O.[Li+] [lithium bicarbonate]
[1]
  PM ATP1a1 localization / PM abundance of ion channels: the perturbation was less obvious

## CC(/C=C/C(=O)NO)=C\[C@@H](C)C(=O)c1ccc(N(C)C)cc1 [Trichostatin A]
[2]
  invasiveness of DCIS.com cells (percentage of invasive cells): did not decrease the invasiveness
[3]
  cell cycle arrest: reversed the cell cycle arrest
